Literature values, collected in US20050148628A1 (priority 2002, published 2005).

Settings: in vivo

terminal elimination half-life: 2-3 weeks
Compound: OC(c1cc(C(F)(F)F)nc2c(C(F)(F)F)cccc12)C1CCCCN1 (stereo not shown) [mefloquine]
